Test results published in patent US20260327264A1, “PEPTIDE INHIBITORS OF INTERLEUKIN-23 RECEPTOR” (Zealand Pharma A/S, priority 2023, published 2026).
Like-named read-outs stand apart in the source and are kept apart here. *1 amine or outer side, *2 acyl side, *3 side chain or, on linkers, in order; H or OH if unused. Where a SMILES comes first, the peptide text is derived from it. Bridges are numbered along the chain shown (N, C = ends). [ ]: non-standard residue; d: D form. 2Nal = N[C@@H](Cc1ccc2ccccc2c1)C(=O)O; AEF = NCCOc1ccc(C[C@H](N)C(=O)O)cc1; X1 = O=C(Cc1ccc(CN[*:1])cc1)[*:2]; 3Pal = N[C@@H](Cc1cccnc1)C(=O)O; αMeL = CC(C)C[C@](C)(N)C(=O)O; CH2COCH2 = O=C(C[*:1])C[*:2]; 3Amb = NCc1cccc(C(=O)O)c1; Dab = NCC[C@H](N)C(=O)O

What was measured:
[1] = target: T1, human IL-23R (Homo sapiens, UniProt Q5VWK5); test: Binding assay: displacement of fluorophore (TAMRA)-labelled reference compound from human IL-23R (BRET, Nluc-IL23R fusion protein membranes); conditions: for Emax: read-out: % displacement (hIL-23R binding)
T1 construct: Nanoluc luciferase (Nluc); secretion signal encoded by the plasmid (not specified); expressed in transfected cells; crude membranes used in the assay
T1 sequence (Q5VWK5 22-629): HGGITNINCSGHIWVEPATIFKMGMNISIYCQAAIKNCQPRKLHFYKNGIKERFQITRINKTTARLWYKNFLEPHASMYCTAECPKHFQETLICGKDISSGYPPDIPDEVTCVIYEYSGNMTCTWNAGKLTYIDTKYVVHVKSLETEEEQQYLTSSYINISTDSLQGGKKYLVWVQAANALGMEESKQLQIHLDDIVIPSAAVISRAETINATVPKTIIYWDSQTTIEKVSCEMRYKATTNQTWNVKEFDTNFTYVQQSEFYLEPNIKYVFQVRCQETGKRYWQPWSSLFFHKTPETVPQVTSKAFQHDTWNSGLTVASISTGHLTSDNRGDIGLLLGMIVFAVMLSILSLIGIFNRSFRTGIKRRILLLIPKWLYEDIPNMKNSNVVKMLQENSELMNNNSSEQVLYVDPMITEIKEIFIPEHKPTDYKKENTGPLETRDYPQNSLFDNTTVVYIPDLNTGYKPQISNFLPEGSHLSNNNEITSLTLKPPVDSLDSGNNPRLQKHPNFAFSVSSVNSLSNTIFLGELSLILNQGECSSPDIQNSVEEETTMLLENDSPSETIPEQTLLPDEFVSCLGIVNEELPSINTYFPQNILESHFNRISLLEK

[2] = system: IL-23 mediated STAT3 signalling (DB cells); test: Functional inhibition of IL-23 mediated STAT3 signalling (phospho-STAT3 Tyr705) in DB cells; type: cell-based, human; conditions: for hIL-23 (pSTAT3) antagonist % inhibition: Table 3-2, maximal inhibitory response, EC80 of hIL-23
Procedure, shortened: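 DB cells preincubated 15 min with inhibitor at 37° C, 5% CO2, then stimulated 90 min with hIL-23 at EC80. Lysate phospho-STAT3 measured by MSD electrochemiluminescence. Signal normalized to IL-23-alone and buffer wells; IC50 and maximal inhibition from concentration–response curves.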

[3] = Peptide stability in simulated gastric fluid (SGF); type: in vitro ADME; conditions: pig, pH 1.2, pepsin, 37° C.
Description: (§1) SGF and SIF were prepared based on the United States Pharmacopeia specifications (Test Solutions, United States Pharmacopeia 35, NF 30, 2012). SGF was prepared by dissolving sodium chloride (0.2 g) in 50 mL of water. A volume of 0.7 mL of 10 M HCl was added to adjust the pH of the solution to 1.2 and the volume made up to 100 mL with water. 64 mg porcine pepsin (P7125, Sigma Aldrich) was gently dissolved into 20 mL preheated (37° C.) solution (3.2 g/L) immediately prior to the incubation. SIF was prepared by dissolving monobasic potassium phosphate (0.68 g) in 50 mL of water and adjusting the pH to 6.8 with 1 M NaOH. The volume was subsequently made up to 100 mL with water. 200 mg porcine pancreatin (P1625, Sigma Aldrich) was gently dissolved into 20 mL preheated (37° C.) solution (10 g/L) immediately prior to the incubation.
(§2) To initiate the incubations, 20 μL of peptide stock solution in 50% v/v isopropanol was deposited at the bottom of a well plate and 580 μL matrix solution was added to give a final substrate concentration of 10 μM. The incubation was performed at 37° C. with gentle shaking. 70 μL aliquots were removed at 0, 1 and 4 hours and quenched into 210 μL ice-cold precipitant solution (95% v/v acetonitrile with 0.1% v/v formic acid). After the last timepoint, the sampling plate was mixed for 10 min on a shaking table and centrifuged 10 min at 2200 g. 70 μL resulting supernatant was diluted with 150 μL water, mixed and centrifugated before analysis by liquid chromatography high resolution mass spectrometry. The zero sample was reinjected after the 4-hour sample to confirm that no drift in instrument sensitivity had occurred during the run. Percent remaining at each timepoint was calculated relative to timepoint zero based on absolute peak areas.
(§3) Compounds with a SGF stability (after 4 h) above 70% are considered highly SGF stable. Compounds with a SGF stability (after 4 h) between 30-70% (including 30% and 70%) are considered moderately SGF stable. Compounds with a SGF stability (after 4 h) below 30% are considered SGF unstable. SGF stability values above 100% are due to assay uncertainty and indicate the compound has not degraded.

[4] = Peptide stability in simulated intestinal fluid (SIF); type: in vitro ADME; conditions: simulated intestinal fluid
Description: as §1, §2
as §3, with “SIF” for “SGF”

[5] = Table 3-2, EC80 of hIL-23, read-out: hIL-23 (pSTAT3) antagonist IC50
[6] = EC80 of hIL-23, read-out: IC50 (pSTAT3)

SMILES | Emax [1] [%] | remaining at 4 h, 10 µM [3] [%] | IC50 [2, 5] [nM] | hIL-23 (pSTAT3) antagonist % inhibition [2] [%] | further results
CNC(=O)[C@H](Cc1cccnc1)NC(=O)[C@H](Cc1c[nH]cn1)NC(=O)[C@@H]1CCC(=O)NCc2ccc(cc2)CC(=O)N[C@@H](CO)C(=O)N[C@H]2CCC(=O)NCC[C@H](NC(=O)[C@H](CCC(N)=O)NC(=O)[C@H](Cc3c[nH]c4ccccc34)NC2=O)C(=O)N[C@@H](Cc2ccc(OCCN)cc2)C(=O)N[C@@H](Cc2ccc3ccccc3c2)C(=O)N[C@@](C)(CC(C)C)C(=O)N1 [Compound 34, [4-Aminomethyl-phenylacetyl](1c)*SE(2c)WQ[Dab](2c)[Y(2-aminoethoxy)][2-Nal][2-Me-Leu]E(1c)H[3-(3-Pyridyl)-Ala]-[NHMe]] ([X1]SEWQ[Dab][AEF][2Nal][αMeL]EH[3Pal]-NHMe; lactam 3-6, N-10) | 90 | 95 | – | 102 | –
CC(C)C[C@]1(C)NC(=O)[C@H](Cc2ccc3ccccc3c2)NC(=O)[C@H](Cc2ccc(OCCN)cc2)NC(=O)[C@@H]2CCNC(=O)CC[C@H](NC(=O)[C@H](CO)NC(=O)Cc3ccc(cc3)CNC(=O)CC[C@@H](C(=O)N[C@@H](CCN)C(=O)N[C@@H](Cc3c[nH]cn3)C(=O)N[C@@H](Cc3cccnc3)C(N)=O)NC1=O)C(=O)N[C@@H](Cc1c[nH]c3ccccc13)C(=O)N[C@@H](CCC(N)=O)C(=O)N2 [Compound 12, [4-Aminomethyl-phenylacetyl](1c)*SE(2c)WQ[Dab](2c)[Y(2-aminoethoxy)][2-Nal][2-Me-Leu]E(1c)[Dab]H[3-(3-Pyridyl)-Ala]-[NH2]] ([X1]SEWQ[Dab][AEF][2Nal][αMeL]E[Dab]H[3Pal]-NH2; lactam 3-6, N-10) | 104 | – | 3.5 | 100 | remaining at 1 h, 10 µM ([3]; 1 h): 94%
CC(C)C[C@]1(C)NC(=O)[C@H](Cc2ccc3ccccc3c2)NC(=O)[C@H](Cc2ccc(OCCN)cc2)NC(=O)[C@@H]2CCNC(=O)CC[C@H](NC(=O)[C@H](CO)NC(=O)Cc3ccc(cc3)CNC(=O)CC[C@@H](C(=O)N[C@@H](CCN)C(=O)N(C)[C@@H](Cc3cccnc3)C(N)=O)NC1=O)C(=O)N[C@@H](Cc1c[nH]c3ccccc13)C(=O)N[C@@H](CCC(N)=O)C(=O)N2 [Compound 4, [4-Aminomethyl-phenylacetyl](1c)*SE(2c)WQ[Dab](2c)[Y(2-aminoethoxy)][2-Nal][2-Me-Leu]E(1c)[Dab][N—Me-3-(3-Pyridyl)-Ala]-[NH2]] | 111 | 103 | 6.5 | 100 | IC50 [1]: 0.17 nM; IC50 [2, 6]: 6.5 nM
CC(C)C[C@]1(C)NC(=O)[C@H](Cc2ccc3ccccc3c2)NC(=O)[C@H](Cc2ccc(OCCN)cc2)NC(=O)[C@@H]2CCNC(=O)CC[C@H](NC(=O)[C@H](CO)NC(=O)Cc3ccc(cc3)CNC(=O)CC[C@@H](C(=O)N[C@@H](CCN)C(=O)N[C@@](C)(Cc3cccnc3)C(N)=O)NC1=O)C(=O)N[C@@H](Cc1c[nH]c3ccccc13)C(=O)N[C@@H](CCC(N)=O)C(=O)N2 [Compound 3, [4-Aminomethyl-phenylacetyl](1c)*SE(2c)WQ[Dab](2c)[Y(2-aminoethoxy)][2-Nal][2-Me-Leu]E(1c)[Dab][2-Me-3-(3-Pyridyl)-Ala]-[NH2]] | 99 | 104 | 1.7 | 98 | IC50 [2, 6]: 1.7 nM
CNC(=O)[C@H](Cc1cccnc1)NC(=O)[C@H](CCN)NC(=O)[C@@H]1CCC(=O)NCc2ccc(cc2)CC(=O)N[C@@H](C)C(=O)N[C@H]2CCC(=O)NCC[C@H](NC(=O)[C@H](CCC(N)=O)NC(=O)[C@H](Cc3c[nH]c4ccccc34)NC2=O)C(=O)N[C@@H](Cc2ccc(OCCN)cc2)C(=O)N[C@@H](Cc2c[nH]c3ncccc23)C(=O)NC(C)(C)C(=O)N1 [Compound 44, [4-Aminomethyl-phenylacetyl](1c)*AE(2c)WQ[Dab](2c)[Y(2-aminoethoxy)][7-AzaTrp][Aib]E(1c)[Dab][3-(3-Pyridyl)-Ala]-[NHMe]] | – | – | – | – | remaining at 1 h, 10 µM ([4]; pig, SIF, 1 h, pH 6.8, pancreatin, 37° C., 10 μM): 78%; remaining at 4 h, 10 µM ([4]; pig, SIF, 4 h, pH 6.8, pancreatin, 37° C., 10 μM, read-out: SIF (% remaining 4 h)): 91%

Continued, in another order:

Emax [1] [%] | remaining at 4 h, 10 µM [3] [%] | IC50 [2, 5] [nM] | SMILES | hIL-23 (pSTAT3) antagonist % inhibition [2] [%] | further results
97 | – | – | CC(C)C[C@]1(C)NC(=O)[C@H](Cc2ccc3ccccc3c2)NC(=O)[C@H](Cc2ccc(OCCN)cc2)NC(=O)[C@@H]2CCNC(=O)CC[C@H](NC(=O)[C@H](CO)NC(=O)Cc3ccc(cc3)CNC(=O)CC[C@@H](C(=O)N[C@@H](CCN)C(=O)N[C@@H](Cc3cccnc3)C(N)=O)NC1=O)C(=O)N[C@@H](Cc1c[nH]c3ccccc13)C(=O)N[C@@H](CCC(N)=O)C(=O)N2 [Ref 122, [4-Aminomethyl-phenylacetyl](1c)*SE(2c)WQ[Dab](2c)[Y(2-aminoethoxy)][2-Nal][2-Me-Leu]E(1c)[Dab][3-(3-Pyridyl)-Ala]-[NH2], reference compound] | 99 | potency of the compound (in words) ([1]; potency against IL-23R): potent; SIF stability (in words) [4]: not stable; major metabolite formed after incubation in the SIF assay [4]: the peptide without the C-terminal 3Pal (3-(3-Pyridyl)-Ala) amino acid
104 | 102 | – | CNC(=O)[C@H](Cc1cccnc1)NC(=O)[C@H](CCN)NC(=O)[C@@H]1CCC(=O)NCc2ccc(cc2)CC(=O)N[C@@H](C)C(=O)N[C@H]2CCC(=O)NCC[C@H](NC(=O)[C@H](CCC(N)=O)NC(=O)[C@H](Cc3c[nH]c4ccccc34)NC2=O)C(=O)N[C@@H](CCc2ccccc2)C(=O)N[C@@H](Cc2ccc3ccccc3c2)C(=O)NC(C)(C)C(=O)N1 [Compound 41, [4-Aminomethyl-phenylacetyl](1c)*AE(2c)WQ[Dab](2c)[hPhe][2-Nal][Aib]E(1c)[Dab][3-(3-Pyridyl)-Ala]-[NHMe]] | – | –
95 | 102 | 0.069 | CNC(=O)[C@H](Cc1cccnc1)NC(=O)[C@H](COC)NC(=O)[C@@H]1CCC(=O)NCc2ccc(cc2)CC(=O)N[C@@H](CO)C(=O)N[C@H]2CCC(=O)NCC[C@H](NC(=O)[C@H](CCC(N)=O)NC(=O)[C@H](Cc3c[nH]c4ccccc34)NC2=O)C(=O)N[C@@H](Cc2ccc(OCCN)cc2)C(=O)N[C@@H](Cc2ccc3ccccc3c2)C(=O)N[C@@](C)(CC(C)C)C(=O)N1 [Compound 37, [4-Aminomethyl-phenylacetyl](1c)*SE(2c)WQ[Dab](2c)[Y(2-aminoethoxy)][2-Nal][2-Me-Leu]E(1c)[Ser(OMe)][3-(3-Pyridyl)-Ala]-[NHMe]] | 100 | –
103 | – | 45 | CC(C)C[C@@H]1NC(=O)[C@H](Cc2ccc3ccccc3c2)NC(=O)[C@H](Cc2c[nH]c3ccccc23)NC(=O)[C@@H]2CSCC(=O)CSC[C@H](NC(=O)[C@H](CO)NC(=O)c3cccc(c3)CNC(=O)CC[C@@H](C(=O)N[C@@H](CCCNC(=N)N)C(N)=O)NC1=O)C(=O)N[C@@H](Cc1c[nH]c3ccccc13)C(=O)N[C@@H](CCC(N)=O)C(=O)N2 [Ref 37, [(3-Aminomethyl)benzoyl](1c)*SC(2a)WQC(2a)W[2-Nal]LE(1c)R-[NH2], reference compound] ([3Amb]SCWQCW[2Nal]LER-NH2; linker 3-6 via CH2COCH2; lactam N-10) | 89 | –
